The text below walks through data of patent US11084800B2 (Achillion Pharmaceuticals, Inc., priority 2017, dated 2021).

Bounds are passed on as bounds.

By IC50 is commonly meant the concentration at which inhibition is half-maximal.

Chain of Human Factor D (P00746 26-253): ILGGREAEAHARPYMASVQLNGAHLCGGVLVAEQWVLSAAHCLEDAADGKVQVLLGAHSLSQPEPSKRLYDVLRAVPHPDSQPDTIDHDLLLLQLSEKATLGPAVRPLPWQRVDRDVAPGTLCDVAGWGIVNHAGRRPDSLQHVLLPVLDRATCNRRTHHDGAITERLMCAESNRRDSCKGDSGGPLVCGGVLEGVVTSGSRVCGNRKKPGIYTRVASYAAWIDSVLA

The test addresses Human Factor D (Homo sapiens (Human), UniProt P00746). Briefly: Human Factor D Assay. The class given is biochemical. Particulars: Table 6; Factor D 80 nM, substrate Z-L-Lys-SBz; read-out: IC50. On the procedure:
The assay of Example 10 was used to determine the IC50's of the compounds. Other standard factor D inhibition assays are also available.
Human Factor D (purified from human serum, Complement Technology, Inc.) at 80 nM final concentration is incubated with test compound at various concentrations for 5 min at room temperature in 50 mM Tris, 1M NaCl, pH 7.5. A synthetic substrate Z-L-Lys-SBz and DTNB (Ellman's reagent) are added to final concentrations of 100 μM each. Absorbance at 405 nm (A405) is recorded at 30 second intervals for 30 min using a microplate spectrophotometer. IC50 values are calculated by nonlinear regression of complement Factor D reaction rates as a function of test compound concentration.
In the case of `CC(=O)c1nn(CC(=O)N2[C@H](C(=O)Nc3ccc(F)c(Br)n3)C[C@@]3(C)C[C@@H]23)c2c(C)cc(-c3cnc(C)nc3)cc12` [Compound 46, (1R,3S,5R)-2-(2-(3-acetyl-7-methyl-5-(2-methylpyrimidin-5-yl)-1H-indazol-1-yl)acetyl)-N-(6-bromo-5-fluoropyridin-2-yl)-5-methyl-2-azabicyclo[3.1.0]hexane-3-carboxamide], the IC50 was less than 1000 nM.
On to `CCc1cc(-c2cnc(C)nc2)cc2c(C(C)=O)nn(CC(=O)N3[C@H](C(=O)Nc4nc(Br)ccc4C)C[C@@]4(C)C[C@@H]34)c12` [Compound 47, (1R,3S,5R)-2-(2-(3-Acetyl-7-ethyl-5-(2-methylpyrimidin-5-yl)-1H-indazol-1-yl)acetyl)-N-(6-bromo-3-methylpyridin-2-yl)-5-methyl-2-azabicyclo[3.1.0]hexane-3-carboxamide], for which the 50% inhibitory concentration (IC50) was less than 1000 nM.
As for `COCc1ccc(Br)c(NC(=O)[C@@H]2CC3(CNC(=O)[C@@H](NC(=O)OC)C(C)C)CC3N2C(=O)Cn2nc(C(C)=O)c3cc(-c4cnc(C)nc4)ccc32)n1` (stereo partly drawn) [Compound 48, methyl ((2S)-1-((((3S)-2-(2-(3-acetyl-5-(2-methylpyrimidin-5-yl)-1H-indazol-1-yl)acetyl)-3-((3-bromo-6-(methoxymethyl)pyridin-2-yl)carbamoyl)-2-azabicyclo[3.1.0]hexan-5-yl)methyl)amino)-3-methyl-1-oxobutan-2-yl)carbamate], the IC50 was greater than 10000 nM.
As to `CC(=O)c1nn(CC(=O)N2[C@H](C(=O)Nc3nc(Br)ccc3C)C[C@@]3(C)C[C@@H]23)c2c(C)cc(-c3cnc(C)[n+]([O-])c3)cc12` [Compound 50, 5-(3-Acetyl-1-(2-((1R,3S,5R)-3-(6-bromo-3-methylpyridin-2-ylcarbamoyl)-5-methyl-2-azabicyclo[3.1.0]hexan-2-yl)-2-oxoethyl)-7-methyl-1H-indazol-5-yl)-2-methylpyrimidine 1-oxide], the IC50 is less than 1000 nM.
Consider `Cc1ncc(-c2ccc3c(c2)c(C(N)=O)nn3CC(=O)N2C[C@H]3C[C@H]3[C@H]2C(=O)Nc2nc(Br)ccc2C)cn1` [Compound 56, 1-(2-((1R,2S,5S)-2-((6-Bromo-3-methylpyridin-2-yl)carbamoyl)-3-azabicyclo[3.1.0]hexan-3-yl)-2-oxoethyl)-5-(2-methylpyrimidin-5-yl)-1H-indazole-3-carboxamide], for which the IC50 is less than 1000 nM.
To `Cc1ncc(-c2cc(C)c3c(c2)c(C(N)=O)nn3CC(=O)N2[C@H](C(=O)Nc3nc(Br)ccc3C)C[C@@]3(C)C[C@@H]23)cn1` [Compound 57, 1-(2-((1R,3S,5R)-3-((6-Bromo-3-methylpyridin-2-yl)carbamoyl)-5-methyl-2-azabicyclo[3.1.0]hexan-2-yl)-2-oxoethyl)-7-methyl-5-(2-methylpyrimidin-5-yl)-1H-indazole-3-carboxamide] belongs less than 1000 nM.
On to `Cc1ncc(-c2cc(C)c3c(c2)c(C(N)=O)nn3CC(=O)N2[C@H](C(=O)Nc3cccc(Br)n3)C[C@@]3(C)C[C@@H]23)cn1` [Compound 58, 1-(2-((1R,3S,5R)-3-((6-Bromopyridin-2-yl)carbamoyl)-5-methyl-2-azabicyclo[3.1.0]hexan-2-yl)-2-oxoethyl)-7-methyl-5-(2-methylpyrimidin-5-yl)-1H-indazole-3-carboxamide], for which the IC50 is less than 1000 nM.
Regarding `CC(=O)c1nn(CC(=O)N2C[C@H](F)C[C@H]2C(=O)Nc2nc(Br)ccc2CC(=O)O)c2ccc(-c3cnc(C)nc3)cc12` [Compound 62, 2-(2-((2S,4R)-1-(2-(3-Acetyl-5-(2-methylpyrimidin-5-yl)-1H-indazol-1-yl)acetyl)-4-fluoropyrrolidine-2-carboxamido)-6-bromopyridin-3-yl)acetic Acid], the IC50 is less than 1000 nM.
In the case of `CC(=O)c1nn(CC(=O)N2[C@H](C(=O)Nc3nc(Br)ccc3C)C[C@@]3(C)C[C@@H]23)c2ccc(-c3cnc(C)[n+]([O-])c3)cc12` [Compound 64, 5-(3-acetyl-1-(2-((1R,3S,5R)-3-((6-bromo-3-methylpyridin-2-yl)carbamoyl)-5-methyl-2-azabicyclo[3.1.0]hexan-2-yl)-2-oxoethyl)-1H-indazol-5-yl)-2-methylpyrimidine 1-oxide], the IC50 is less than 1000 nM.
Consider `CC(=O)c1nn(CC(=O)N2[C@H](C(=O)Nc3nc(Br)ccc3C)C[C@@]3(CO)C[C@@H]23)c2ccc(-c3cnc(C)nc3)cc12` [Compound 65, (1R,3S,5S)-2-(2-(3-acetyl-5-(2-methylpyrimidin-5-yl)-1H-indazol-1-yl)acetyl)-N-(6-bromo-3-methylpyridin-2-yl)-5-(hydroxymethyl)-2-azabicyclo[3.1.0]hexane-3-carboxamide], for which the IC50 is less than 1000 nM.
For `CC(=O)c1nn(CC(=O)N2C[C@@](F)(CF)C[C@H]2C(=O)Nc2nc(Br)ccc2C)c2c(C)cc(-c3cnc(C)nc3)cc12` [Compound 66, (2S,4R)-1-(2-(3-Acetyl-7-methyl-5-(2-methylpyrimidin-5-yl)-1H-indazol-1-yl)acetyl)-N-(6-bromo-3-methylpyridin-2-yl)-4-fluoro-4-(fluoromethyl)pyrrolidine-2-carboxamide] the value was less than 1000 nM; for `CC(=O)c1nn(CC(=O)N2[C@H](C(=O)Nc3nc(Br)ccc3C)C[C@@]3(CN4CC5(CCC5)C4)C[C@@H]23)c2ccc(-c3cnc(C)nc3)cc12` [Compound 67, (1R,3S,5R)-5-(2-azaspiro[3.3]heptan-2-ylmethyl)-2-(2-(3-acetyl-5-(2-methylpyrimidin-5-yl)-1H-indazol-1-yl)acetyl)-N-(6-bromo-3-methylpyridin-2-yl)-2-azabicyclo[3.1.0]hexane-3-carboxamide], less than 1000 nM; for `CC(=O)c1nn(CC(=O)N2[C@H]3C[C@@]3(CN3CC4(CCC4)C3)C[C@H]2C(=O)Nc2nc(Br)ccc2C)c2ccc(-c3cnc(C)nc3)cc12` [Compound 68], less than 1000 nM.
For `CC(=O)c1nn(CC(=O)N2[C@H](C(=O)Nc3nc(Br)ccc3C)C[C@@]3(CN4CCN(C)CC4)C[C@@H]23)c2c(C)cc(-c3cnc(C)nc3)cc12` [Compound 69, (1R,3S,5R)-2-(2-(3-Acetyl-7-methyl-5-(2-methylpyrimidin-5-yl)-1H-indazol-1-yl)acetyl)-N-(6-bromo-3-methylpyridin-2-yl)-5-((4-methylpiperazin-1-yl)methyl)-2-azabicyclo[3.1.0]hexane-3-carboxamide] the value was less than 1000 nM; for `C=CCOCc1ccc(Br)nc1NC(=O)[C@@H]1C[C@@]2(CN(C)CC=C)C[C@H]2N1C(=O)Cn1nc(C(C)=O)c2cc(-c3cnc(C)nc3)ccc21` [Compound 70, (1R,3S,5R)-2-(2-(3-Acetyl-5-(2-methylpyrimidin-5-yl)-1H-indazol-1-yl)acetyl)-5-((allyl(methyl)amino)methyl)-N-(3-((allyloxy)methyl)-6-bromopyridin-2-yl)-2-azabicyclo[3.1.0]hexane-3-carboxamide], less than 1000 nM; for `Cc1ncc(-c2ccc3c(c2)c(C(C)O)nn3CC(=O)N2C[C@H]3C[C@H]3[C@H]2C(=O)Nc2nc(Br)ccc2C)cn1` (stereo partly drawn) [Compound 71, (1R,2S,5S)-N-(6-bromo-3-methylpyridin-2-yl)-3-(2-(3-(1-hydroxyethyl)-5-(2-methylpyrimidin-5-yl)-1H-indazol-1-yl)acetyl)-3-azabicyclo[3.1.0]hexane-2-carboxamide], 1000 to 10000 nM.
